Consider four molecules from article PMC8647500 (Molecular Brain, 2021).

The test system of assay [1] is GRABNE1m. Briefly: Dual-color time-lapse imaging in HeLa cells co-expressing DA1.2 and NE1m, green channel. It is filed as cell-based. The settings on record: for NE1m fluorescence response to ligand: NE 1 µM then DA 5 µM. As to the method:
(§1) Stock solutions for the compounds were dissolved in the appropriate vehicle, and a volume from 0.95 to 1 µl was prepared in each 1.5-ml microcentrifuge tube. Compounds were mixed with 0.5 ml imaging buffer from the well and applied to the same well at each time point during imaging (Additional file 1: Fig. S4b). For temperature equilibration of the imaging buffer, 0.5 ml of the imaging buffer was transferred from the well into an empty 1.5-ml microcentrifuge tube and then applied to the buffer in the same well; this procedure repeated 5 times (Additional file 1: Fig. S4c). The procedure for the compound application in the time-lapse imaging is shown in Additional file 1: Fig. S5. The ‘ligand’ dissolved in the appropriate vehicle was applied at the imaging time point shown by the arrow; the ‘vehicle’ was applied at the same time point.
We used Fiji, a distribution of ImageJ [44], for the preparation of quantification and measurement of all imaging files. Principally, for all images, the background was subtracted, and images were registered by StackReg (http://bigwww.epfl.ch/thevenaz/stackreg/), a Fiji plugin to correct misregistration, if required. Note that the median filter was used for the time-lapse images of the neuron before registration to remove camera noise preventing registration. Then, regions of interests (ROIs) were selected for the first time point in time-lapse imaging or in the images before the compound application, to surround the whole cell body for HeLa cells and a dendrite near the cell body for hippocampal neurons. […] In order to normalize the fluorescence changes with the amount of biosensor expression, ΔF/F0 was calculated using the intensity before the compound application. For the time-lapse experiments, the value used for F0 was the mean intensity before compound application. The image of fluorescence change (ΔF/F0) was represented as the pseudocolor intensity-modulated display mode, where color represents the relative ratio value, whilst the brightness of the color represented the fluorescence intensity of the source images. […]

The test system of assay [2] is GRABNE1m. In words: Dual-color time-lapse imaging in rat primary hippocampal neurons co-expressing DA1.2 and NE1m, green channel. It is filed as cell-based. The procedure:
(§2) Primary cultures of rat hippocampal neurons were prepared similarly to that described previously. Female pregnant Wistar/ST rats (total 8 rats) arrived from Japan SLC on the day of the experiment. A pregnant rat with embryonic rats (embryonic days 19) was killed by CO2 inhalation and then embryos (10 embryos per pregnant rat) were removed and decapitated. […] To dissociate hippocampal neurons, hippocampi were treated with 10 units/ml papain (LS003126, Worthington Biochemical) for 10 min at 37 °C. […] Half of the medium was removed and replaced with fresh medium every 7 days.
(§3) Stock solutions for the compounds were dissolved in the appropriate vehicle, and a volume from 0.95 to 1 µl was prepared in each 1.5-ml microcentrifuge tube. […]
(§4) We used Fiji, a distribution of ImageJ [44], for the preparation of quantification and measurement of all imaging files. […] In order to normalize the fluorescence changes with the amount of biosensor expression, ΔF/F0 was calculated using the intensity before the compound application. […] The image of fluorescence change (ΔF/F0) was represented as the pseudocolor intensity-modulated display mode, where color represents the relative ratio value, whilst the brightness of the color represented the fluorescence intensity of the source images. […]

For assay [3], the target named is T1, R-GenGAR-DA1.2 (Homo sapiens, UniProt P21728). Briefly: Dual-color time-lapse imaging in HeLa cells co-expressing DA1.2 and NE1m, red channel. It is filed as cell-based. The procedure: as §1, §4
The target in assay [4] is T1, R-GenGAR-DA1.2. In words: Dual-color time-lapse imaging in rat primary hippocampal neurons co-expressing DA1.2 and NE1m, red channel. In kind it is cell-based. The procedure: as §2, §3, §4
The target in assay [5] is T1, R-GenGAR-DA1.2. Conditions: HeLa cells, all compounds 10 µM.
Procedure: Stock solutions for the compounds were dissolved in the appropriate vehicle, and a volume from 0.95 to 1 µl was prepared in each 1.5-ml microcentrifuge tube. Compounds were mixed with 0.5 ml imaging buffer from the well and applied to the same well at each time point during imaging (Additional file 1: Fig. S4b). For temperature equilibration of the imaging buffer, 0.5 ml of the imaging buffer was transferred from the well into an empty 1.5-ml microcentrifuge tube and then applied to the buffer in the same well; this procedure repeated 5 times (Additional file 1: Fig. S4c). […] The ‘ligand’ dissolved in the appropriate vehicle was applied at the imaging time point shown by the arrow; the ‘vehicle’ was applied at the same time point.
Assay [6] addresses T1, R-GenGAR-DA1.2. Conditions: rat primary hippocampal neurons.
Procedure: Primary cultures of rat hippocampal neurons were prepared similarly to that described previously [40]. Female pregnant Wistar/ST rats (total 8 rats) arrived from Japan SLC on the day of the experiment. A pregnant rat with embryonic rats (embryonic days 19) was killed by CO2 inhalation and then embryos (10 embryos per pregnant rat) were removed and decapitated. […] To dissociate hippocampal neurons, hippocampi were treated with 10 units/ml papain (LS003126, Worthington Biochemical) for 10 min at 37 °C. […] Half of the medium was removed and replaced with fresh medium every 7 days.

Counter-ions that a name gives are not always drawn.

T1 sequence (P21728 with tags, fused parts or gaps): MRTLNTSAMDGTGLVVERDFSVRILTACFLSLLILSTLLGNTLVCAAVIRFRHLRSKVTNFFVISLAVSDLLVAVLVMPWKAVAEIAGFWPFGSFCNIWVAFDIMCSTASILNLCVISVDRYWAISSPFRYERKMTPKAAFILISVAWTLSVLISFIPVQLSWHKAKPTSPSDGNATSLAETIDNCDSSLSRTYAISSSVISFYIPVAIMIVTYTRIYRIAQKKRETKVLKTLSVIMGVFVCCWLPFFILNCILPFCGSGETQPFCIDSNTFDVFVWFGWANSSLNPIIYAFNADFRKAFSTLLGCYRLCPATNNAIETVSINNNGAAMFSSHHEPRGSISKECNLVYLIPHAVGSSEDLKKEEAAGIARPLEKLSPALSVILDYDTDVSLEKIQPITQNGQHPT
T1 sequence (Q9U6Y8 with tags, fused parts or gaps partner): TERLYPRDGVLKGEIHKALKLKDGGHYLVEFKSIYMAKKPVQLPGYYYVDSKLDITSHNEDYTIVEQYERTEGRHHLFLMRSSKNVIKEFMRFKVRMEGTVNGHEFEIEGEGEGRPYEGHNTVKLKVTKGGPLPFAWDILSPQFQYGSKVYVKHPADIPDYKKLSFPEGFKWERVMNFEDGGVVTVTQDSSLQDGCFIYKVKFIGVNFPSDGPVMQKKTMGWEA

Regarding `NCCc1ccc(O)c(O)c1` [DA, Dopamine], in the assay on GRABNE1m [1], the “NE1m fluorescence response to ligand” value is “not DA”.

Consider `COC(=O)[C@@H]1[C@H]2C[C@H]3c4[nH]c5ccccc5c4CCN3C[C@@H]2CC[C@@H]1O` [YO, yohimbine hydrochloride], for which the “effect of antagonist on NE1m fluorescence response” value was “recovered to its basal level” in the assay with GRABNE1m [1] (YO 1 µM) and “blocked” in the assay on GRABNE1m [2] (YO 1 µM).

As to `CN1CCc2cc(Cl)c(O)cc2[C@@H](c2ccccc2)C1` [SCH, R( +)-SCH 23390 hydrochloride], the “effect of antagonist on DA1.2 response to DA” value at R-GenGAR-DA1.2 [3] (SCH 5 µM) is reported as “blocked”; on R-GenGAR-DA1.2 [4] (SCH 5 µM), “restored”. On R-GenGAR-DA1.2 [5], the “effect of antagonist on the response of DA1.2 to DA” value is given as “blocked”. Also, the “effect of antagonist applied after DA on DA1.2 fluorescence” value at R-GenGAR-DA1.2 [6] (SCH 5 µM after DA 5 µM) was “restored to baseline”. In addition, the “effect of antagonist pretreatment on response of DA1.2 to DA” value on R-GenGAR-DA1.2 [6] (SCH before DA) was “completely suppressed”.

For `NC[C@H](O)c1ccc(O)c(O)c1` [NE, L-noradrenaline bitartrate monohydrate], the results for the “DA1.2 fluorescence response to ligand” value on R-GenGAR-DA1.2 [3] (NE 1 µM then DA 5 µM) and on R-GenGAR-DA1.2 [4] (NE 1 µM then DA 5 µM) were “not to NE” and “not NE”, respectively. Besides, the “NE1m fluorescence response to ligand” value with GRABNE1m [1] is “increase in green fluorescence”; in the assay with GRABNE1m [2] (NE 1 µM), “increase in NE1m green fluorescence”.
